Marks after values point to notes of the source that are not given here.
Test: Determination of bio-accumulation: urinary clearance pharmacokinetic study in rats
Conditions: no parent compound observed in the urine, based on elimination of the major metabolite C3F7—O—CHFCOO−, oral gavage, 73 micro Moles per kg

Compound | % Recovery (96 h) | T½ (h)
N.O=C(O)COC(F)(F)C(F)OC(F)(F)C(F)(F)C(F)(F)F (centres unmarked) [Compound 16, C3F7—O—CFH—CF2—O—CH2—COONH4] | 65* % | 13* h

Same assay, conditions: oral gavage, 73 micro Moles per kg, clinical signs of toxicity and gross necropsy at 96 hours post-dose

Compound | Compound-related Effects
N.O=C(O)C(F)(F)C(F)(F)OC(F)(F)C(F)(F)C(F)(F)C(F)(F)F [Compound 9, C4F9—O—CF2—CF2—COONH4] | Hepatomegaly
N.O=C(O)C(F)(F)C(F)(F)C(F)(F)C(F)(F)C(F)(F)OC(F)C(F)(F)F (centres unmarked) [Compound 14, CF3—CFH—O—(CF2)5—COONH4] | Hepatomegaly
N.O=C(O)C(F)(F)C(F)(F)C(F)(F)C(F)(F)C(F)(F)C(F)(F)C(F)(F)F [Compound C-1, C7F15COONH4, reference compound] | Hepatomegaly
CF3CF2CF2OCF(CF3)CF2OCF2COONH4 [Compound C-3, reference compound] | Hepatomegaly

Same assay, conditions: recovery of administered amount in urine after 96 h, oral gavage, 73 micro Moles per kg body weight, N=3

Compound | % Recovery (96 h) [%]
N.O=C(O)C(F)(F)OC(F)(F)C(F)(F)C(F)(F)OC(F)(F)F [Compound 1, CF3—O—(CF2)3—O—CF2—COONH4] | 73
N.O=C(O)C(F)(F)OC(F)(F)OC(F)(F)F [Compound 2, CF3—OCF2—O—CF2—COONH4] | 96
N.O=C(O)C(F)(F)OC(F)(F)OC(F)(F)OC(F)(F)F [Compound 3, CF3—OCF2—OCF2—OCF2—COONH4] | 100
N.O=C(O)C(F)(F)OC(F)(F)C(F)(F)C(F)(F)OC(F)(F)F [Compound 4, CF3—(OCF2)3—OCF2—COONH4] | 50
N.O=C(O)C(F)(F)OC(F)(F)C(F)(F)C(F)(F)F [Compound 5, C3F7—O—CF2—COONH4] | 97
N.O=C(O)C(F)(F)C(F)(F)OC(F)(F)F [Compound 6, CF3—O—CF2—CF2—COONH4] | 100
N.O=C(O)C(F)(F)C(F)(F)OC(F)(F)C(F)(F)F [Compound 7, C2F5—O—CF2—CF2—COONH4] | 100
N.O=C(O)C(F)(F)C(F)(F)OC(F)(F)C(F)(F)C(F)(F)F [Compound 8, C3F7—O—CF2—CF2—COONH4] | 82
N.O=C(O)C(F)(F)C(F)(F)OC(F)(F)C(F)(F)C(F)(F)C(F)(F)F [Compound 9, C4F9—O—CF2—CF2—COONH4] | 42
N.O=C(O)C(F)(F)OC(F)(F)C(F)(F)OC(F)(F)C(F)(F)F [Compound 10, C2F5—O—CF2—CF2—O—CF2—COONH4] | 99
N.O=C(O)C(F)(F)C(F)OC(F)(F)C(F)(F)C(F)(F)OC(F)(F)F (centres unmarked) [Compound 11, CF3—O—CF2—CF2—CF2—O—CHF—CF2—COONH4] | 84
N.O=C(O)C(F)OC(F)(F)C(F)(F)C(F)(F)OC(F)(F)F (centres unmarked) [Compound 12, CF3—O—CF2—CF2—CF2—O—CHF—COONH4] | 95
N.O=C(O)C(F)(F)C(F)OC(F)(F)C(F)(F)C(F)(F)F (centres unmarked) [Compound 13, C3F7—O—CFH—CF2COONH4] | 94
N.O=C(O)C(F)(F)C(F)(F)C(F)(F)C(F)(F)C(F)(F)OC(F)C(F)(F)F (centres unmarked) [Compound 14, CF3—CFH—O—(CF2)5—COONH4] | 32
N.O=C(O)C(F)(F)C(F)(F)C(F)(F)OC(F)C(F)(F)F (centres unmarked) [Compound 15, CF3—CFH—O—(CF2)3—COONH4] | 95
N.O=C(O)C(F)(F)C(F)(F)C(F)(F)C(F)(F)C(F)(F)C(F)(F)C(F)(F)F [Compound C-1, C7F15COONH4, reference compound] | 6
CF3CF2CF2OCF(CF3)CF2OCF2COONH4 [Compound C-3, reference compound] | 5

Same assay, conditions: renal half-life, oral gavage, 73 micro Moles per kg body weight, N=3, urine by fluorine NMR, exponential least squares curve fitting

Compound | T½ [h] | T½ (h)
N.O=C(O)C(F)(F)OC(F)(F)OC(F)(F)F [Compound 2, CF3—OCF2—O—CF2—COONH4] | 12 | –
N.O=C(O)C(F)(F)OC(F)(F)OC(F)(F)OC(F)(F)F [Compound 3, CF3—OCF2—OCF2—OCF2—COONH4] | 12 | –
N.O=C(O)C(F)(F)OC(F)(F)C(F)(F)C(F)(F)F [Compound 5, C3F7—O—CF2—COONH4] | 11 | –
N.O=C(O)C(F)(F)C(F)(F)OC(F)(F)F [Compound 6, CF3—O—CF2—CF2—COONH4] | 11 | –
N.O=C(O)C(F)(F)C(F)(F)OC(F)(F)C(F)(F)F [Compound 7, C2F5—O—CF2—CF2—COONH4] | 10 | –
N.O=C(O)C(F)(F)C(F)(F)OC(F)(F)C(F)(F)C(F)(F)F [Compound 8, C3F7—O—CF2—CF2—COONH4] | 12 | –
N.O=C(O)C(F)(F)C(F)(F)OC(F)(F)C(F)(F)C(F)(F)C(F)(F)F [Compound 9, C4F9—O—CF2—CF2—COONH4] | 31 | –
N.O=C(O)C(F)(F)OC(F)(F)C(F)(F)OC(F)(F)C(F)(F)F [Compound 10, C2F5—O—CF2—CF2—O—CF2—COONH4] | 10 | –
N.O=C(O)C(F)(F)C(F)OC(F)(F)C(F)(F)C(F)(F)OC(F)(F)F (centres unmarked) [Compound 11, CF3—O—CF2—CF2—CF2—O—CHF—CF2—COONH4] | 12 | –
N.O=C(O)C(F)OC(F)(F)C(F)(F)C(F)(F)OC(F)(F)F (centres unmarked) [Compound 12, CF3—O—CF2—CF2—CF2—O—CHF—COONH4] | 11 | –
N.O=C(O)C(F)(F)C(F)OC(F)(F)C(F)(F)C(F)(F)F (centres unmarked) [Compound 13, C3F7—O—CFH—CF2COONH4] | 11 | –
N.O=C(O)C(F)(F)C(F)(F)C(F)(F)C(F)(F)C(F)(F)OC(F)C(F)(F)F (centres unmarked) [Compound 14, CF3—CFH—O—(CF2)5—COONH4] | 24 | –
N.O=C(O)C(F)(F)C(F)(F)C(F)(F)OC(F)C(F)(F)F (centres unmarked) [Compound 15, CF3—CFH—O—(CF2)3—COONH4] | 8 | –
N.O=C(O)C(F)(F)C(F)(F)C(F)(F)C(F)(F)C(F)(F)C(F)(F)C(F)(F)F [Compound C-1, C7F15COONH4, reference compound] | – | ˜550 h
CF3CF2CF2OCF(CF3)CF2OCF2COONH4 [Compound C-3, reference compound] | 95 | –
